# Data published in paper PMC10518255, “A first-in-class pan-lysyl oxidase inhibitor impairs stromal remodeling and enhances gemcitabine response and survival in pancreatic cancer” (Nature Cancer, 2023).
# Values joined by “and” are separate entries in the source; they are usually repeats but may differ in a detail not shown here. Equal entries are not always repeated.
# Experiments:
# [1] = test system: lysyl oxidase family activity in conditioned medium from KPC CAFs; experiment: Amplex red enzymatic activity assay on cell-derived conditioned medium (Extended Data Fig. 3g); type: biochemical, mouse; set-up: Lysyl oxidase family activity in conditioned media: unit not given here; conditions: for Lysyl oxidase family activity in conditioned media: KPC CAF CM, replicates
# Protocol: (§1) Cell-derived conditioned medium was prepared from KPC CAFs and CCs grown in phenol red-free DMEM with 0.1% FBS and 10 μM CuSO4 for 24 h. At collection, size filtration >10 kDa for 40× concentration and buffer exchange (1.2 M urea and 50 mM sodium borate buffer, pH 8.2) were performed and subsequently used for the Amplex red assay as previously described[59] using putrescine as a substrate. Three biological repeats were performed.
# (§2) Data presented as mean values +/− SD. f. […] Data presented as mean values +/− SD. […] Data presented as mean values +/− SD. […] Data presented as mean values +/− SD. Ordinary one-way ANOVA for multiple comparison test performed. Source data
# [2] = test system: lysyl oxidase family activity in conditioned medium from KPC cancer cells; experiment: as above; type: biochemical, mouse; set-up: Lysyl oxidase family activity in conditioned media: unit not given here; conditions: for Lysyl oxidase family activity in conditioned media: KPC cancer cells CM, replicates
# Protocol: as §1, §2
# MPO = experiment: Immunohistochemistry of end-point KPC tumors: myeloperoxidase cell infiltration; type: in vivo, mouse; conditions: KPC tumours at endpoint; individual replicate values (Extended Data 6H)
# Protocol: All tissues or matrices, including patient TMAs, were fixed in 10% buffered formalin and embedded in paraffin. The 4-μm sections of samples were deparaffinized with xylene and rehydrated in graded ethanol washes. For immunohistochemistry, Bond Dewax Solution (AR9222) was used. Antigen retrieval was performed using Bond RX H2(30) protocol: HIER 30 min ER1 (citrate pH 6) OR ER2 (EDTA pH 9) at 100 °C. Slides were quenched in BOND Polymer Refine Detection (Leica Biosystems DS9800). […] Slides were digitized on an Aperio slide scanner and representative areas per tumor acquired and analyzed by researchers blinded to the conditions of the experiment.
# Extended Data Fig. 6 PXS-5505 in combination with gemcitabine in a KPC model. a. Quantification of proliferating cells (Ki67 positive nuclear staining) in KPC tumors at end point, treated as indicated. 5 fields of view (500 μm × 500 μm) per mouse and 10 mice per cohort were scored. […] Quantification of percent coverage of αSMA positive staining in KPC tumors at end point, treated as indicated. 3 fields of view (1000 μm × 1000 μm) per mouse and 10 mice per cohort were scored. […] Quantification of percent coverage of PDGFR-ß positive staining in KPC tumors at end point, treated as indicated. 3 fields of view (1000 μm × 1000 μm) per mouse and 10 mice per cohort were scored. […] 3 fields of view (500 μm × 500 μm) per mouse and 10 mice per cohort were scored. […]
# KPC CAFs = experiment: 2D cell viability assay (MTS); type: cell-based, mouse; conditions: for 2D cell viability (MTS assay): CAFs, replicates
# Protocol: The 2D cell viability assays were performed using KPC CAFs and CCs seeded at (250 CAFs per well) and (500 CCs per well) in a 96-well plate. MTS solution (Promega) was added to the cells at a 1:20 dilution and cells were incubated at 37 °C for 2 h. Cell proliferation rates were measured by detecting the absorbance at 490 nm using a microplate reader. Three biological repeats were performed.
# as §2
structure (smiles),measurement,setting,value
"Cl.Cl.NC/C=C(\F)CS(=O)(=O)c1cccc2cccnc12.O [PXS-5505, (Z)-3-fluoro-4-(quinolin-8-ylsulfonyl)but-2-en-1-amine dihydrochloride monohydrate]",Lysyl oxidase family activity in conditioned media,[1]; 1.5 nM PXS,95.9609 and 94.079 and 81.6749
same,Lysyl oxidase family activity in conditioned media,[1]; 3 nM PXS,109.447 and 108.981 and 81.5719
same,Lysyl oxidase family activity in conditioned media,[1]; 15 nM PXS,100.129 and 99.9799 and 74.1019
same,Lysyl oxidase family activity in conditioned media,[1]; 30 nM PXS,107.999 and 96.3316 and 79.5133
same,Lysyl oxidase family activity in conditioned media,[1]; 150 nM PXS,79.0426 and 71.3415 and 64.7518
same,Lysyl oxidase family activity in conditioned media,[1]; 300 nM PXS,88.3802 and 67.0866 and 51.1694
same,Lysyl oxidase family activity in conditioned media,[1]; 1.5 uM PXS,45.307 and 27.142 and 15.754
same,Lysyl oxidase family activity in conditioned media,[1]; 3 uM PXS,31.4691 and 22.608 and 3.789
same,Lysyl oxidase family activity in conditioned media,[1]; 15 uM PXS,-3.917 and 9.401 and -5.483
same,Lysyl oxidase family activity in conditioned media,[1]; 30 uM PXS,-4.091 and 9.102 and -4.018
same,inhibition of lysyl oxidase family activity in conditioned medium,[1]; KPC CAFs,inhibition of lysyl oxidase family activity
same,inhibition of lysyl oxidase family activity in conditioned medium,[2]; KPC CCs,inhibition of lysyl oxidase family activity
same,Lysyl oxidase family activity in conditioned media,[2]; 1.5 nM PXS,52.7404 and 147.39 and 87.9635
same,Lysyl oxidase family activity in conditioned media,[2]; 3 nM PXS,57.9047 and 143.925 and 88.9618
same,Lysyl oxidase family activity in conditioned media,[2]; 15 nM PXS,58.7665 and 150.554 and 90.679
same,Lysyl oxidase family activity in conditioned media,[2]; 30 nM PXS,57.8418 and 141.264 and 86.9464
same,Lysyl oxidase family activity in conditioned media,[2]; 150 nM PXS,55.9673 and 128.167 and 75.6773
same,Lysyl oxidase family activity in conditioned media,[2]; 300 nM PXS,56.4831 and 97.2065 and 57.86
same,Lysyl oxidase family activity in conditioned media,[2]; 1.5 uM PXS,35.0772 and 43.4748 and 18.796
same,Lysyl oxidase family activity in conditioned media,[2]; 3 uM PXS,22.4023 and 21.6286 and 3.933
same,Lysyl oxidase family activity in conditioned media,[2]; 15 uM PXS,-2.759 and 11.8534 and -9.095
same,Lysyl oxidase family activity in conditioned media,[2]; 30 uM PXS,-2.098 and 9.262 and -6.1538
same,number of myeloperoxidase (MPO+) cell infiltration,MPO,11
same,2D cell viability (MTS assay),KPC CAFs; PXS-5505 0.3 (unit not given),89.24 and 85.85
same,2D cell viability (MTS assay),KPC CAFs; PXS-5505 3 (unit not given),104.51 and 107.51
same,2D cell viability (MTS assay),KPC CAFs; PXS-5505 30 (unit not given),111.18 and 108.48
same,2D cell viability (MTS assay),KPC CAFs; PXS-5505 100 (unit not given),94.55 and 103.25
same,2D cell viability (MTS assay),KPC CAFs; PXS-5505 300 (unit not given),90.49 and 84.11
same,"effect on proliferation, 2D","KPC CAFs; KPC CAFs, up to 300 µM",nor did it show any effect on proliferation
